The source made the active and inactive calls.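 Rule for the calls: active = EC50 no more than a set limit of log units above the highest dose; inactive = the rest.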
target: S. pyogenes SKKanGAS, kanamycin survival, BacTiterGlo, 6 h; experiment: S. pyogenes SKKanGAS kanamycin growth inhibitors – SKKanGAS strain, luminescence, dose confirmation, streptokinase promoter inhibitor project, dose response (AID 1902);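 note: lower survival reflects blocked streptokinase promoter driving kanamycin resistance gene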

Compared with `O=C(/C=C/c1cccc([N+](=O)[O-])c1)c1ccc([N+](=O)[O-])o1`, `O=C(NNC(=S)NC(=O)c1ccc(Br)cc1)c1cccc([N+](=O)[O-])c1` is 3.2-fold lower in EC50: 2.88 µM for the first, 0.892 µM for the second. The second is the more potent here.

`COc1ccccc1-n1c(SCC(=O)Nc2ccc(C)cc2)nc(O)cc1=O` and `COc1cc(C)ccc1NC(=O)Cc1csc(NC(=O)Nc2ccccc2OC)n1` are within 1.5-fold of each other in EC50: 13.6 µM for the first, 15.7 µM for the second.

First: Oc1c(C(Nc2cccc(C(F)(F)F)c2)c2cccnc2)ccc2cccnc12 (centres undefined)
Second: FC(F)(F)c1cccc(CNC2c3ccccc3-c3ccccc32)c1
The EC50 of the first is 4.3-fold lower: 1.53 µM for the first, 6.57 µM for the second. The first is the more potent here.

Going from `CCC1(C)Cc2ccccc2-c2c1c(=O)n(Cc1ccccc1)c1nnnn21` (centres undefined) to `c1ccc(CCNc2nc(-c3ccccn3)nc3ccccc23)cc1`, the EC50 falls from 1.51 µM to 0.884 µM (1.7-fold).

`Cc1cc2n(n1)C(c1c[nH]c3ccccc13)Nc1ccccc1-2` (centres undefined) and `c1ccc(-c2nnc(-c3c[nH]c4ccccc34)nc2-c2ccccc2)cc1` are within 1.5-fold of each other in EC50: 7.65 µM for the first, 7.17 µM for the second.

Going from `Cc1ccc(C)c(-c2csc(N)c2C(=O)OC(C)C)c1` to `CCOC(=O)c1c(NC(=S)N2CCN(C)CC2)sc(C)c1-c1ccccc1`, the EC50 rises from 3.11 µM to 6.51 µM (2.1-fold). The first is the more potent here.

Going from `O=C(Nc1nc(-c2ccccn2)cs1)C12CC3CC(CC(O)(C3)C1)C2` to `CC(Oc1ccc(Br)cc1)C(=O)Nc1nc(-c2ccccn2)cs1` (centres undefined), the EC50 falls from 1.44 µM to less than 0.06 µM. The second is the more potent here.

Going from `CC1(C)CN=C(Nc2nc3ccccc3s2)S1` to `CC12CCC(c3c(C(=O)Nc4nccs4)nn(-c4ccccc4)c31)C2(C)C` (centres undefined), the EC50 falls from 6.75 µM to 3.4 µM (2-fold). The second is the more potent here.

`CC(/C=C1\SC(=S)N(NS(=O)(=O)c2ccccc2)C1=O)=C\c1ccccc1` and `O=C(Nc1ccccc1Sc1ccccc1)c1ccccc1F` are within 1.5-fold of each other in EC50: 5.38 µM for the first, 4.53 µM for the second.

First: CCCOc1ccc(Cc2c(Cl)nc(SC)nc2N(C)C)cc1
Second: CCOC(=O)c1sc2ncnc(N3CCN(c4ccc(OC)cc4)CC3)c2c1C
The EC50 of the first is 3-fold lower: 3.46 µM for the first, 10.3 µM for the second.

Compared with `COc1cc(C(=O)NC(=S)N(CCc2ccccc2)CCc2ccccc2)cc(OC)c1OC`, `COc1cc(C(=O)NNC(=S)NC(=O)c2ccc(F)cc2)cc(OC)c1OC` is 3-fold higher in EC50: 0.328 µM for the first, 0.989 µM for the second. The first is the more potent here.

Compared with `N#Cc1nc(-c2ccc(OCc3ccccc3Cl)cc2)oc1NCCCn1ccnc1`, `COc1ccc(-c2c(C#N)c(N)nc3sc(C(=O)c4ccccc4)c(N)c23)cc1` is 1.8-fold higher in EC50: 3.27 µM for the first, 5.9 µM for the second.

`S=C1NC[C@H](CC2CCCCC2)N1CC1CCCCC1` and `Oc1c(Cl)cc(Cl)c2c1NCCC2` are within 1.5-fold of each other in EC50: 7.69 µM for the first, 5.37 µM for the second.

`O=[N+]([O-])c1ccc(/C=N/NC(=S)Nc2ccc(Cl)cc2Cl)s1` and `O=C(N/N=C/c1cc(Cl)ccc1O)c1cccnc1` are within 1.5-fold of each other in EC50: 1.75 µM for the first, 1.55 µM for the second.

First: COC(=O)c1cc(C(=O)Nc2nc3ccccc3[nH]2)cc([N+](=O)[O-])c1
Second: CCOC(=O)c1c(C)[nH]c(C(=O)N/N=C/c2cc([N+](=O)[O-])ccc2O)c1C
The EC50 of the first is 2-fold higher: 8.85 µM for the first, 4.39 µM for the second. The second is the more potent here.

`CN1C(=O)/C(=C/c2ccccc2F)Sc2ccc(C(=O)NCC3CCCO3)cc21` (centres undefined) and `CCCCCCn1c(=O)c(C(=O)N/N=C/c2cccc(F)c2)c(O)c2ccccc21` are within 1.5-fold of each other in EC50: 1.53 µM for the first, 2.11 µM for the second.

Going from `[O-][n+]1c2ccccc2[n+]([O-])c2cc(O)ccc21` to `O=[N+]([O-])c1ccc(N=Nc2ccc(O)cc2O)cc1`, the EC50 falls from 5.86 µM to 2.94 µM (2-fold). The second is the more potent here.

Compared with `FC(F)(F)Oc1ccc(NC(=S)Nc2ccc(OC(F)(F)F)cc2)cc1`, `COc1ccc(C(=O)NC(=S)NNC(=O)c2ccccc2O)cc1` is 4.5-fold lower in EC50: 6.49 µM for the first, 1.44 µM for the second.

Going from `CCCCCCCCCc1nc2sc3c(c2c(=O)n1NC(=O)c1ccccc1[N+](=O)[O-])CC(C)(C)OC3` to `CCCCCCCCCCCC1=C(O)C(=O)C=C(O)C1=O`, the EC50 falls from 2.75 µM to 1.67 µM (1.6-fold).

`CN1c2ccsc2/C(=N/Nc2ccccc2)CS1(=O)=O` and `C/C(=N\Nc1ccc(C(=O)O)cc1)c1ccc2c(c1)Nc1ccccc1S2` are within 1.5-fold of each other in EC50: 2.21 µM for the first, 2.45 µM for the second.

Compared with `O=C(Nc1nnc(-c2ccco2)o1)c1ccc(Cl)s1`, `CC(C)Oc1ccc(C(=O)Nc2nnc(C3=COCCO3)o2)cc1` is 2.2-fold lower in EC50: 1.71 µM for the first, 0.794 µM for the second.

Compared with `CC(C)(C)OC(=O)[C@H](Cc1ccccc1)NC(=O)c1[nH]cnc1C(=O)Nc1ccc(Cl)cc1`, `Cc1c(C(=O)NNC(=S)NCc2ccc(Cl)cc2)oc2ccccc12` is 1.6-fold lower in EC50: 3.52 µM for the first, 2.17 µM for the second. The second is the more potent here.

First: c1ccc(C(NCCNC(c2ccccc2)c2ccccc2)c2ccccc2)cc1
Second: CCc1sc(N(C(=O)Cc2ccccc2)c2ccc(F)cc2)nc1-c1ccccc1
The EC50 of the first is 2.4-fold lower: 1.05 µM for the first, 2.54 µM for the second. The first is the more potent here.

Compared with `c1ccc(-c2cc3c(NCC4COc5ccccc5O4)ncnc3s2)cc1` (centres undefined), `O=c1[nH]c(-c2ccccn2)nc2sc(-c3ccccc3)cc12` is 11-fold lower in EC50: 2.98 µM for the first, 0.261 µM for the second. The second is the more potent here.

`Cc1ccc(C(=O)NC(=S)NNC(=O)c2ccccc2O)cc1` and `Cc1ccc(NC(=S)NC(=O)c2ccc(-c3ccc(Cl)cc3)o2)c(O)c1` are within 1.5-fold of each other in EC50: 0.459 µM for the first, 0.531 µM for the second.

`O=c1[nH]c(CN2CC=C(c3ccccc3)CC2)nc2scc(-c3cccs3)c12` and `O=c1[nH]c2ccc(Cl)cc2c(-c2ccccc2)c1N1CCN(c2ccccn2)CC1` are within 1.5-fold of each other in EC50: 3.87 µM for the first, 2.83 µM for the second.

Going from `Cc1cccc(OCC(=O)Nc2ccccc2N2CCCCC2)c1C` to `COc1ccccc1N1CCN(Cc2nc(N)nc(Nc3ccc(C)c(Cl)c3)n2)CC1`, the EC50 rises from 4.8 µM to 7.99 µM (1.7-fold). The first is the more potent here.

First: COc1ccc(/C=N/n2c(-c3cccs3)n[nH]c2=S)cc1
Second: COc1ccc(-c2nc(-c3cccs3)c(-c3cccs3)[nH]2)cc1OC
The EC50 of the first is 3.3-fold higher: 14.3 µM for the first, 4.32 µM for the second. The second is the more potent here.

First: Cc1ccccc1N=Nc1ccc(O)c2ncccc12
Second: Cc1cc(C(=O)N/N=C/c2cc(N=Nc3ccccc3)ccc2O)n[nH]1
The EC50 of the first is 29-fold lower: 0.069 µM for the first, 2.02 µM for the second.

Going from `Clc1cccc(Nc2ncnc3c2cnn3-c2ccccc2)c1` to `CCCOc1cccc(-c2cc(C(=O)N/N=C/c3ccccn3)c3ccccc3n2)c1`, the EC50 falls from 4.98 µM to 1.87 µM (2.7-fold).

Going from `CCCCCCCCCCCCn1ccc(=N)cc1` to `CCc1ccc(-c2ccc3nnc(SCC(N)=O)n3n2)cc1`, the EC50 falls from 4.1 µM to 1.66 µM (2.5-fold).

Compared with `CC(C)c1ccc2nc3sc(C(=O)N4CCc5ccccc5C4)c(N)c3cc2c1`, `Cc1ccc2c(c1)=C(c1sc(N(C)c3ccc(O)cc3)nc1O)C(=O)N=2` is 2.2-fold lower in EC50: 14.5 µM for the first, 6.72 µM for the second. The second is the more potent here.

`NS(=O)(=O)c1ccc(N2N=C(c3ccccc3)CC2c2ccc(F)cc2)cc1` (centres undefined) and `C/C(=N\NC(=O)COc1ccccc1-c1ccccc1)c1ccc(O)cc1O` are within 1.5-fold of each other in EC50: 5.28 µM for the first, 3.89 µM for the second.

`Cn1cc(C(=O)c2ccc(Cl)cc2Cl)cc1C(=O)N/N=C(\N)COc1cccc(C(F)(F)F)c1` and `O/N=C(\c1ccc(Cl)cc1Cl)c1ncc(C(F)(F)F)cc1Cl` are within 1.5-fold of each other in EC50: 3.22 µM for the first, 2.74 µM for the second.

Compared with `COc1cc(/C=C/C(=O)OCC(=O)c2c(N)n(C)c(=O)n(C)c2=O)ccc1OCC#N`, `CCc1nnc(NS(=O)(=O)c2ccc(NC(=S)NC(=O)/C=C/c3ccc(C(C)C)cc3)cc2)s1` is 1.8-fold lower in EC50: 5.45 µM for the first, 3.11 µM for the second.

Going from `CN(C)c1ccc(O)c2c1CC1CC3C(N(C)C)C(=O)C(C(N)=O)=C(O)[C@@]3(O)C(=O)C1=C2O` (some centres undefined) to `COC(=O)C(C)NC(=S)N1CCN(c2c(F)cc3c(=O)c(C(=O)O)cn(C4CC4)c3c2OC)CC1C` (centres undefined), the EC50 rises from 0.096 µM to 3.31 µM (34-fold).

In the case of `COc1cccc(/C=N/NC(=O)c2c(C)nc3ccc(Cl)cn23)c1O`, the EC50 is reported as 5.63 µM.

`O=C(CSc1nnc(NC(=O)C2CC(=O)N(c3ccc(F)cc3)C2)s1)NCc1ccco1` (centres undefined) was tested, and the EC50 was > 15 µM (inactive).
`COc1ccc(S(=O)(=O)N2CCOC2CNC(=O)C(=O)NCc2ccccc2Cl)cc1` (centres undefined) was tested, and the EC50 was > 15 µM (inactive).
With `CCOC(=O)CC(NC(=O)CCS(=O)(=O)c1ccc2c(c1)n(C)c(=O)c(=O)n2C)c1ccc(C)cc1` (centres undefined) the EC50 was > 15 µM (inactive).
For `O=S(=O)(NC(=NCc1ccccc1)c1ccccc1)c1ccc(Br)cc1`, the EC50 was > 15 µM (inactive).
With `CCCc1cc(C(=O)Nc2ccc(C(=O)c3ccc(F)cc3)cc2)n(C)n1` the EC50 was > 15 µM (inactive).
For `COC(=O)c1c(NC(=O)c2ccn(C)n2)sc2c1CCC2`, the EC50 was > 15 µM (inactive).

Source: PubChem BioAssay AID1902 (Broad Institute, 2009)
